The structures appear in SMILES notation.

The values that follow come from patent US10168342B2, “Lipid probes and uses thereof” (THE SCRIPPS RESEARCH INSTITUTE, priority 2015, dated 2019).

This assay concerns membrane and soluble proteins of HEK293T cells. As to the kind of experiment: Gel-based profiling of lipid probe labeling in HEK293T cells. The settings on record: probe 20 μM, 30 min, UV. The class given is cell-based, human. The method, then:
For gel-based analysis, after sonicating the membrane pellets in cold DPBS, protein concentrations of each fraction were determined using the BCA protein assay (Bio-Rad) and a microplate reader (Tecan, Infinite F500).
Proteomes were diluted to 1.0 mg/mL (total protein concentration) and 50 μL of each proteome was transferred to separate wells in a 96-well plate.
In some instances, within the arachidonoyl subset of probes, fatty acid- and fatty acid amide-based probes (AA-DA and AEA-DA, respectively) were synthesized and their potential were evaluated to bind and covalently modify (under UV-light exposure) proteins in human cells by gel-based profiling. For example, HEK293T cells were treated with probe (AA-DA or AEA-DA; 20 μM, 30 min), irradiated with UV light (10 min, 4° C.), lysed and the cell proteomes fractionated into membrane and soluble components by centrifugation prior to conjugation to a fluorescent reporter tag (Rh—N3) using CuAAC (FIG. 4A). […] In some instances, this was a consequence of rapid sequestration of this probe into membranes through its metabolic incorporation into phospho/neutral-lipids or into lipidated proteins. […] In some instances, the labeling profile of the AEA-DA probe reflected a limited capacity of the cell to metabolize this amidated probe, which undergoes enzyme-mediated hydrolysis prior to incorporation into other lipids or proteins.

In the case of `C#CCCCC1(CC/C=C\C/C=C\C/C=C\CCCC(=O)NCCO)N=N1` [AEA-DA, (5Z,8Z,11Z)-N-(2-hydroxyethyl)-14-(3-(pent-4-yn-1-yl)-3H-diazirin-3-yl)tetradeca-5,8,11-trienamide], the “protein labeling profile (membrane vs soluble)” value is “substantial labeling of both soluble and membrane proteins”.
